According to US5457051A, “Enantioselective hydrolysis of ketoprofen esters by beauveria bassiana and enzymes derived therefrom” (Sepracor, Inc., priority 1993, dated 1995):
Blank lines part the entries; values can stand above or below the compound they belong to. Starred links: 1 amine or outer side, 2 acyl side, 3 side chain; linkers in the order of their positions; H or OH if unused. Residues, ends and D or L forms follow the SMILES beside them. *: point of attachment. pNA = O=[N+]([O-])c1ccc(N*)cc1; Suc = O=C(CCC(=O)[*:2])[*:1]

Columns and labels:
[1] = test system: Beauveria ester hydrolase; assay: Km from the activity of the preparation at different concentrations of substrate; format: biochemical, Beauveria bassiana; conditions: partially purified enzyme preparation
[2] = test system: Beauveria ester hydrolase; assay: Substrate specificity of the enzyme preparation (Table 9; lipase and protease substrates); format: biochemical, Beauveria bassiana; conditions: compound used as substrate
Protocol: A one-mL (final volume) reaction mixture contained ketoprofen choline ester (6 mg), NaPi buffer (200 mM, pH 6.5), and 150 mg of whole cells or pellet, or 300 μL cell crude extract. The reaction was carried out at 30° C. in a shaker with a reciprocal speed of 169 rpm. Routine assays of the enzyme were performed by using p-nitrophenyl ketoprofen as a substrate at 30° C.
(§1) Although the enzyme hydrolyzes the water-soluble choline ester, it appears that the enzyme might be a lipase.

[3] = test system: Beauveria ester hydrolase; assay: Sensitivity of the enzyme to PMSF; format: biochemical, Beauveria bassiana
Source text: as §1

[4] = test system: Beauveria ester hydrolase; conditions: at 40 mM acid; partially purified enzyme preparation

SMILES: C[C@H](NC(=O)CCC(=O)O)C(=O)N[C@@H](C)C(=O)N1CCC[C@H]1C(=O)N[C@@H](Cc1ccccc1)C(=O)Nc1ccc([N+](=O)[O-])cc1 [N-succinyl-ala-ala-pro-phe-p-nitroaniline] (Suc-AAPF-pNA)
hydrolysis of the substance by the enzyme preparation (in words) [2]: does not hydrolyze

SMILES: O=S(=O)(F)Cc1ccccc1 [PMSF, phenylmethylsulfonylfluoride]
sensitivity of the enzyme to the inhibitor (in words) [3]: sensitive

SMILES: C[C@@H](C(=O)O)c1cccc(C(=O)c2ccccc2)c1 [acid product, R-ketoprofen]
inhibition of the enzyme by reaction product [4]: approximately 45%

More lines, now with the values ahead:

estimated km [1]: 4.96 mM
SMILES: CC(C(=O)OCC[N+](C)(C)C)c1cccc(C(=O)c2ccccc2)c1 (racemic) [ketoprofen choline ester]

Enzymic activity (n mole substrate hydrolyzed/min/mL enzyme) [2]: 215 n mole substrate hydrolyzed/mi
SMILES: CC(=O)Oc1ccc([N+](=O)[O-])cc1 [p-nitrophenyl acetate]

Enzymic activity (n mole substrate hydrolyzed/min/mL enzyme) [2]: 7496 n mole substrate hydrolyzed/mi
SMILES: CCCCCCCCCCCCCCCC(=O)Oc1ccc([N+](=O)[O-])cc1 [p-nitrophenyl palmitate]
